Where “and” joins values, the source holds several entries; their conditions need not be identical. Identical values can stand only once.
Test system: HCMV strain AD 169
Assay: Rabbit HCMV ascending dose efficacy and time course recovery (Example 7)
Conditions: for Vitreo-retinal score: sum of both eyes
[1] = day 4, PALA 50 or DHPG 10 mg/kg/d
[2] = day 5, PALA 75 mg/kg/d, with or without steroid
[3] = day 5, PALA 50 or DHPG 10 mg/kg/d
[4] = day 6, PALA 75 mg/kg/d, with or without steroid
[5] = day 6, PALA 50 or DHPG 10 mg/kg/d
[6] = day 7, PALA 75 mg/kg/d, with or without steroid
[7] = day 12, PALA 75 mg/kg/d, with or without steroid
[8] = day 12, PALA 50 or DHPG 10 mg/kg/d

## O=C(O)C[C@H](NC(=O)CP(=O)(O)O)C(=O)O [PALA]
Day 4, PALA 100 mg/kg/d
  HCMV Recovered, OS: +
  HCMV Titer, OD: 10^5 pfu and 10^3 pfu
  HCMV Titer, OS: 10^3 pfu and 10^4 pfu
  HCMV recovery frequency: 3/4
  Optic neuritis score (ONH): 6.0 and 5.0
  Vitreo-retinal score: 4.5 and 3.75
[1]
  HCMV Recovered, OD: - and +
  HCMV Recovered, OS: -
  HCMV Titer, OD: 10^4 pfu
  HCMV recovery frequency: 1/4
  Optic neuritis score (ONH): 2.0 and 3.0
[2]
  Average HCMV titer: 10^2 pfu
  HCMV Recovered, OD: -
  HCMV Recovered, OS: - and +
  HCMV Titer, OS: 10^2 pfu
  HCMV recovery frequency: 1/4
  Optic neuritis score (ONH): 3.0 and 5.0
  Vitreo-retinal score: 1.75 and 3.5
Day 5, PALA 100 mg/kg/d
  Average HCMV titer: 10^2 pfu
  HCMV Recovered, OD: -
  HCMV Recovered, OS: + and -
  HCMV Titer, OS: 10^2 pfu
  HCMV recovery frequency: 1/4
  HCMV titer: 10^2 pfu/ml
  Optic neuritis score (ONH): 5.0 and 4.0
  Vitreo-retinal score: 3.5 and 3.0
[3]
  Average HCMV titer: 10^1 pfu
  HCMV Recovered, OD: - and +
  HCMV Recovered, OS: + and -
  HCMV Titer, OD: 10^2 pfu
  HCMV Titer, OS: 10^2 pfu
  HCMV recovery frequency: 2/4
  Optic neuritis score (ONH): 1.0
  Vitreo-retinal score: 0.65 and 1.25
Day 6, PALA 50 mg/kg/d
  HCMV Titer, OS: 10^3 pfu and 10^2 pfu
  HCMV titer: 10^2 pfu/ml
[4]
  HCMV Recovered, OD: + and -
  HCMV Recovered, OS: + and -
  HCMV Titer, OD: 10^3 pfu
  HCMV Titer, OS: 10^4 pfu
  HCMV recovery frequency: 3/4 and 2/4
  Optic neuritis score (ONH): 2.0
Day 6, PALA 100 mg/kg/d
  HCMV Recovered, OD: +
  HCMV Recovered, OS: - and +
  HCMV Titer, OD: 10^2 pfu
  HCMV Titer, OS: 10^3 pfu
  HCMV recovery frequency: 3/4
  Optic neuritis score (ONH): 4.0
  Vitreo-retinal score: 4.0
[5]
  Average HCMV titer: 10^2 pfu
  HCMV Recovered, OD: +
  HCMV Recovered, OS: +
  HCMV Titer, OD: 10^2 pfu
  HCMV recovery frequency: 4/4
  Optic neuritis score (ONH): 1.0 and 0.5
  Vitreo-retinal score: 0.75 and 0.6
[6]
  Optic neuritis score (ONH): 0
  Vitreo-retinal score: 5.0
Day 7, PALA 100 mg/kg/d
  Optic neuritis score (ONH): 2.5 and 4.0
  Vitreo-retinal score: 3.25 and 4.25
Day 7, PALA 50 or DHPG 10 mg/kg/d
  Vitreo-retinal score: 0.4
[7]
  HCMV Recovered, OD: -
  HCMV Recovered, OS: -
Day 12, PALA 100 mg/kg/d
  HCMV Recovered, OD: -
  HCMV Recovered, OS: -
[8]
  HCMV Recovered, OD: -
  HCMV Recovered, OS: -

— US5491135A (priority 1993, dated 1996)
